The target of data set [1] is T1, 5-HT2A receptors (Rattus norvegicus, UniProt P14842).
T1 construct: membranes from rat brain (cortex) in vitro; from tissue; host or cells: rat brain cortex membranes
The data set can be described thus: Inhibition of the binding of [3H]Ketanserin to 5-HT2A receptors. The settings on record: for inhibition at 0.1 µM: read-out: 5-HT2A-binding (% inhibition); for 5-HT2A-binding (% inhibition): at 100 nM. Here is the method:
Inhibition of the Binding of [^3H]Ketanserin to 5-HT2A Receptors
The compounds were tested with respect to their affinity for 5-HT2A receptors by determining their ability to inhibit the binding of [^3H]Ketanserin (0.50 nM) to membranes from rat brain (cortex) in vitro. Method described in Sanchez et al. Drug Dev. Res. 1991, 22, 239-250.

Data set [2] has as its target T2, human cloned dopamine D4.2 receptors (Homo sapiens, UniProt P21917, DEL265-296).
T2 construct: expressed in transfected cells; host or cells: CHO cells
T2 sequence (P21917 with tags, fused parts or gaps DEL265-296): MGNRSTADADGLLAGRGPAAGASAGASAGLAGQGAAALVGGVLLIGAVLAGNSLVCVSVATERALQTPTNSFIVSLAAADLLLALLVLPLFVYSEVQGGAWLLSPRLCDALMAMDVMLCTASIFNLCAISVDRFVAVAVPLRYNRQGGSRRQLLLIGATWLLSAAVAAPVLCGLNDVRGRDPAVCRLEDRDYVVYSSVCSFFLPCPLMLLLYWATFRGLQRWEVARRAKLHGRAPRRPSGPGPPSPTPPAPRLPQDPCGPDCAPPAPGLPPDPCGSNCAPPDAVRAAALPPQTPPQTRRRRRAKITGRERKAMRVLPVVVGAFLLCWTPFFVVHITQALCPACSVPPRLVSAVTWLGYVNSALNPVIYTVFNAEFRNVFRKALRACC
The data set can be described thus: Inhibition of the binding of [3H]YM-09151-2 to human dopamine D4.2 receptors. The settings on record: [3H]YM-09151-2 0.06 nM, membranes of CHO-cells; for D4-binding (% inhibition): at 50 nM. Here is the method:
Inhibition of the Binding of [^3H]YM-09151-2 to Human Dopamine D4.2 Receptors
By this method, the inhibition by drugs of the binding of [^3H]YM-09151-2 (0.06 nM) to membranes of human cloned dopamine D4.2 receptors expressed in CHO-cells is determined in vitro. Method modified from NEN Life Science Products, Inc., technical data certificate PC2533-10/96.

For data set [3], the target named is T3, dopamine D4 receptors (Homo sapiens, UniProt P21917).
T3 sequence (P21917 1-419): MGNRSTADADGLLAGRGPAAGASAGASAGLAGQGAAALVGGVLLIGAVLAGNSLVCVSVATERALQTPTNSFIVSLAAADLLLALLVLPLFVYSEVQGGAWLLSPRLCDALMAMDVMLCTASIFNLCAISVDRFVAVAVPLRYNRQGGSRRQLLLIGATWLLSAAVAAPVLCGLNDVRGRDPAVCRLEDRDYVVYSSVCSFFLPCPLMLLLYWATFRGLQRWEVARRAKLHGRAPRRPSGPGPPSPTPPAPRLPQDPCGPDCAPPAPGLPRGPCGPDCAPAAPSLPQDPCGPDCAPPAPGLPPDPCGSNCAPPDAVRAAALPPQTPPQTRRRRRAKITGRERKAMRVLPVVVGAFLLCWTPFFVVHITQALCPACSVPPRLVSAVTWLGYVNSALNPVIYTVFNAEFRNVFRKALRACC
The settings on record: various in vitro efficacy assays, Gazi et al.; cited from earlier work.

Where [4] appears, read: [3H]Ketanserin 0.50 nM, membranes from rat brain (cortex), read-out: 5-HT2A-binding (IC50).
The mark [5] stands for this setting: [3H]Ketanserin 0.50 nM, membranes from rat brain (cortex).

Counter-ions that a name gives are not always drawn. Like-named read-outs stand apart in the source and are kept apart here.

T1 sequence (P14842 whole entry): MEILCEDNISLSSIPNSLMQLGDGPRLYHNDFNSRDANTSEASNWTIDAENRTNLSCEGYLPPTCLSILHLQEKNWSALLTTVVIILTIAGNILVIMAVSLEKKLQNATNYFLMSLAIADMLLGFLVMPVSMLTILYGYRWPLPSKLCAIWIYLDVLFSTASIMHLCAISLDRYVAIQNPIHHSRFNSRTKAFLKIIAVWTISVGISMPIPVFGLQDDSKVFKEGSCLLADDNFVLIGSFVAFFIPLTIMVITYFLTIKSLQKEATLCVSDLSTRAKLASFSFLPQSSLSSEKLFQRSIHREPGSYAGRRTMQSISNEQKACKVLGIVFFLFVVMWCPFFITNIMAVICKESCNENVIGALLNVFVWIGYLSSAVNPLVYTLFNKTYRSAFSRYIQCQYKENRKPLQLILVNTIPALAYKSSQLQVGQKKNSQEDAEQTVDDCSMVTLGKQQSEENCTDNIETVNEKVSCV

A word on the melting point: it is the temperature of the solid-liquid transition. Turning to `O=C1CCc2ccccc2N1CCCCN1CCN(c2ccc3[nH]ccc3c2)CC1` (as salt: hydrochloride) [Compound 2b, 5-{4-[4-(2-Oxo-3,4-dihydro-2H-quinolin-1-yl)butan-1-yl]piperazin-1-yl}-1H-indole], the melting point lay within 233 to 236 °C.
What is called IC50 is the midpoint of a concentration-inhibition curve. Consider `O=C1CCc2ccccc2N1CCN1CCN(c2ccc3[nH]ccc3c2)CC1` [Compound 1, 5-{4-[2-(2-Oxo-3,4-dihydro-2H-quinolin-1-yl)ethyl]piperazin-1-yl}-1H-indole], for which, in data set [1] (setting [4]), the IC50 amounted to 29 nM. Besides, the “D4-binding (% inhibition)” value in data set [2] came to 90% at 50 nM.
Take `O=C1CCc2ccccc2N1CCCN1CCN(c2ccc3[nH]ccc3c2)CC1` [Compound 2a, 5-{4-[3-(2-Oxo-3,4-dihydro-2H-quinolin-1-yl)propan-1-yl]piperazin-1-yl}-1H-indole]: the IC50 in data set [1] (setting [4]) turned out to be 13 nM; in data set [2], 3.2 nM.
As for `O=C1CCc2ccccc2N1CCCCN1CCN(c2ccc3[nH]ccc3c2)CC1` [Compound 2b, 5-{4-[4-(2-Oxo-3,4-dihydro-2H-quinolin-1-yl)butan-1-yl]piperazin-1-yl}-1H-indole], the IC50 came to 17 nM in data set [1] (setting [4]) and 18 nM in data set [2].
Regarding `O=C1CCc2ccccc2N1CCCN1CCN(c2ccc3cc[nH]c3c2)CC1` [Compound 2c], in data set [1] (setting [4]), the IC50 came out at 32 nM. In data set [2], the “D4-binding (% inhibition)” value is on record as 94% at 50 nM.
What is called inhibition is the relative decrease from the control value, in per cent. `O=C1CCc2ccccc2N1CCCCN1CCN(c2ccc3cc[nH]c3c2)CC1` [Compound 2d, 6-{4-[4-(2-Oxo-3,4-dihydro-2H-quinolin-1-yl)butan-1-yl]piperazin-1-yl}-1H-indole]: the inhibition at 0.1 µM in data set [1] was determined as 46%. Moreover, in data set [2], the “D4-binding (% inhibition)” value is on record as 58% at 50 nM.
Turning to `O=C1CCc2ccccc2N1CCCN1CC=C(c2ccc3[nH]ccc3c2)CC1` [Compound 2e, 5-{1-[3-(2-Oxo-3,4-dihydro-2H-quinolin-1-yl)propan-1-yl]-3,6-dihydro-2H-pyridin-4-yl}-1H-indole], the values for the IC50 in data set [1] and in data set [2] were 6.6 nM and 0.97 nM, respectively.
Regarding `O=C1CCc2ccccc2N1CCCN1CCC(c2ccc3[nH]ccc3c2)CC1` [Compound 2f, 5-{1-[3-(2-Oxo-3,4-dihydro-2H-quinolin-1-yl)propan-1-yl]piperidin-4-yl}-1H-indole], the IC50 worked out at 22 nM in data set [1] (setting [4]) and 1.6 nM in data set [2].
For `O=C1COc2ccccc2N1CCCCN1CCN(c2ccc3[nH]ccc3c2)CC1` [Compound 3a, 5-{4-[4-(3-Oxo-3,4-dihydro-2H-1,4-benzoxazin-4-yl)butan-1-yl]piperazin-4-yl}-1H-indole], the “5-HT2A-binding (% inhibition)” value in data set [1] (setting [5]) was determined as 89% at 100 nM. Also, the “D4-binding (% inhibition)” value in data set [2] turned out to be 56% at 50 nM.
As to `O=C1c2ccccc2CCN1CCCN1CCN(c2ccc3[nH]ccc3c2)CC1` [Compound 3b], the IC50 in data set [1] (setting [4]) was 90 nM. In addition, the “D4-binding (% inhibition)” value in data set [2] is on record as 78% at 50 nM.
As for `O=C1c2ccccc2CCN1CCCCN1CCN(c2ccc3[nH]ccc3c2)CC1` [Compound 3c], the “5-HT2A-binding (% inhibition)” value in data set [1] (setting [5]) stood at 93% at 100 nM. For the same molecule, the “D4-binding (% inhibition)” value in data set [2] is reported as 56% at 50 nM.
On to `c1ccc2c(c1)CCCN2CCCN1CCN(c2ccc3[nH]ccc3c2)CC1` [Compound 4a, 5-{4-[3-(3,4-Dihydro-2H-quinolin-1-yl)propan-1-yl]piperazin-1-yl}-1H-indole], for which the values for the IC50 in data set [1] (setting [4]) and in data set [2] were 27 nM and 2.6 nM, respectively.
On the same counts, the results for `c1ccc2c(c1)CCCN2CCCN1CCN(c2ccc3[nH]ccc3c2)CC1` [Compound 4b, 5-{4-[3-(3,4-Dihydro-2H-quinolin-1-yl)propan-1-yl]piperazin-1-yl}-1H-indole] are 19 nM and 8.8 nM.
`O=C(CCN1CCN(c2ccc3[nH]ccc3c2)CC1)N1CCc2ccccc2C1` [Compound 5a, 5-{4-[3-(3,4-Dihydro-1H-isoquinolin-2-yl)-3-oxopropan-1-yl]piperazin-1-yl}-1H-indole]: the inhibition at 0.1 µM in data set [1] came out at 29%. In addition, the “D4-binding (% inhibition)” value in data set [2] came out at 73% at 50 nM.
As for `O=C(CCCN1CCN(c2ccc3[nH]ccc3c2)CC1)N1CCc2ccccc2C1` [Compound 5b, 5-{4-[4-(3,4-Dihydro-1H-isoquinolin-2-yl)-4-oxobutan-1-yl]piperazin-1-yl}-1H-indole], the melting point is 122 to 125 °C. The IC50 in data set [1] (setting [4]) was 4 nM. In addition, the “D4-binding (% inhibition)” value in data set [2] came out at 81% at 50 nM.
As for `CC(C)Oc1cccnc1N(C)C1CCN(Cc2ccccc2)CC1` [Compound U-101958], in data set [3], the “Functional activity at D4 receptor (literature)” value is given as “partial D4 receptor agonists”.

Values taken from US20030232822A1, “Indole derivatives useful for the treatment of CNS disorders” (H. Lundbeck A/S, priority 2000, published 2003).
